Legend:
CYP2C19 = CYP2C19 (Homo sapiens, UniProt P33261); assay: CYP2C19 inhibition (fluorescent substrate CEC); type: in vitro ADME; details: read-out: Cyp IC50 2C19
Description: (§1) CYP (Cytochrome P450) enzymes are the major drug metabolizing enzymes present in the liver. The inhibition of CYP enzyme activity (IC50) for each of CYP1A2, CYP2C19, CYP2C9, CYP2D6, CYP3A4(BFC) and CYP3A4(BQ) is determined for compounds, where inhibition of metabolism of a known substrate leads to a decrease in the fluorescence of the metabolized product. The fluorescence of the product is monitored as a function of compound concentration. Compounds are dissolved in DMSO to a concentration of 100 mM. These are diluted 1 μL into 82 μL of acetonitrile. An 11 μL aliquot of this solution is then added to 204 μL of cofactor mix (1.3% NADPH Regeneration system Solution A, 1.04% NADPH Regeneration system Solution B from BD Biosciences, 5% acetonitrile and 0.05% DMSO). These are then serially diluted 1:1 (160 μL to 160 μL co-factor mix) for a total of 10 points. A 10 μL aliquot of this final mixture is dispensed into 384 well assay plates and incubated for 10 minutes at 37° C. […] Assay plates are incubated at 37° C. (CYP1A2-15 min; CYP2C9-45 min; CYP2C19, 2D6 and 3A4-30 min) and read in a Tecan Safire 2 plate reader (CYP1A2, 2C19 and 3A4 409 ex/460 em; CYP2C9 and 2D6 409 ex/530 em). The signal versus compound concentration is used to determine the IC50. The enzymes and substrates for this assay are obtained from BD Biosciences.

CYP3A4(BFC) = CYP3A4(BFC) (Homo sapiens, UniProt P08684); assay: CYP3A4(BFC) inhibition; type: in vitro ADME; details: CYP3A4, substrate BFC; read-out: Cyp IC50 3A4(BFC)
Description: as §1

CYP2C9 = CYP2C9 (Homo sapiens, UniProt P11712); assay: CYP2C9 inhibition (fluorescent substrate MFC); type: in vitro ADME; details: read-out: Cyp IC50 2C9
Description: as §1

BCR-NTRK3 BaF3 cells = target: T1, BCR-NTRK3 BaF3 cells (Homo sapiens, UniProt Q16288); assay: BaF3 BCR-NTRK3 cell proliferation assay (ATPlite); type: cell-based; details: read-out: Inhibition of Cell Proliferation IC50, BCR/BaF3 TrkC
T1 construct: fused on or other part: P11274 (Breakpoint cluster region protein)
Description: (§2) Compounds are assessed in a variety of cell based assays. For example BaF3 cells engineered with any of BCR-FMS, BCR-KIT, BCR-FLT3, BCR-NTRK1, BCR-NTRK2, and BCR-NTRK3, are used in cell proliferation assays to assess inhibitory activity of Fms, Kit, Flt-3, TrkA, TrkB, and TrkC, respectively. An MV-4-11 (leukemia) cell proliferation assay is used to assess inhibitory activity in Flt-3, and SKNSH (human neuroblastoma) cell proliferation assay is used to assess efficacy of Fms/Trk inhibitors. Additional cells may be assayed similarly to assess the efficacy of Fms/Trk inhibitors, such as MiaPaCa (human pancreatic cancer) and Capan-1 (human pancreatic carcinoma) cells. Reagent and assay conditions are as follows: • BaF3 cells: • Maintained in RPMI containing 10% FBS, 1% PenStrep, 1% NEAA, and 1% L-Glutamine, supplemented with 1 mg/mL G418 and 5% WEHI-CM (or recombinant murine IL-3). • Confluent cells are split 1:50 to 1:100 every 3-4 days. • MV-4-11 cells: • Maintained in Iscove's Modified Dulbecco's Medium containing 10% FBS. • Confluent cells are split 1:4 every 3-4 days. • SKNSH cells: RPMI containing 10% FBS. On day 1, cells are counted, then centrifuged in a conical tube for 5 minutes at 1000 rpm. The supernatant is removed and cells are re-suspended as follows: • BaF3: resuspend in growth media +1 mg/mL G418 (without WEHFIL-3) to 2×10^5 cells/mL. • MV-4-11: resuspend in growth media to 5×10^5 cells/mL. • SKNSH: resuspend in growth media to 2×10^4 cells/mL. The cells are plated (50 μL, 150 μL for SKNSH cells) in each well of a 96-well dish (Corning 3610) and incubated at 37° C. in 5% CO2 overnight, cells plated to a final concentration of cells as follows: • BaF3: 10,000 cells per well. • MV-4-11: 25,000 cells per well. • SKNSH: 3,000 cells per well. On day 2, compound at a maximum concentration of 5 mM is serially diluted 1:3 for a total of 8 point titration with DMSO as a control. A 1 μL aliquot of each dilution point is added to 249 μL growth media and 50 μL is added to a well containing cells, providing 10 μM compound for the maximum concentration point. The cells are incubated for 3 days at 37° C. in 5% CO2. For SKNSH cells, a 0.75 μL aliquot of appropriate dilution in DMSO is added to 150 μL of cells. On day 5, ATPlite 1 step Luminescence Assay System (Perkin Elmer #6016739) is brought to room temperature along with the cell cultures. ATPlite is added to each well as follows: • BaF3: 25 μL per well. • MV-4-11: 40 μL per well. • SKNSH: 20 μL per well. The cells are incubated at room temperature for 10 minutes, then luminescence is read on Safire reader. The measured luminescence correlates directly with cell number, such that the reading as a function of compound concentration is used to determine the IC50 value.
(§3) It is understood that the results of these assays may vary as assay conditions are varied. Inhibition levels determined under the conditions described herein represent a relative activity for the compounds tested under the specific conditions employed. The cell based assays are likely to show variability due to the complexity of the system and the sensitivity thereof to any changes in the assay conditions. […] Results for compounds that are tested and show substantially no inhibition below the highest tested concentration are represented as “-” in the tables below. In some instances, the compounds were not tested in all of the assays, or assay results were not valid, as indicated by NA in the tables below.

BCR-NTRK2 BaF3 cells = target: T2, BCR-NTRK2 BaF3 cells (Homo sapiens, UniProt Q16620); assay: BaF3 BCR-NTRK2 cell proliferation assay (ATPlite); type: cell-based; details: read-out: Inhibition of Cell Proliferation IC50, BCR/BaF3 TrkB
T2 construct: fused on or other part: P11274 (Breakpoint cluster region protein)
Description: as §2, §3

BCR-NTRK1 BaF3 cells = target: T3, BCR-NTRK1 BaF3 cells (Homo sapiens, UniProt P04629); assay: BaF3 BCR-NTRK1 cell proliferation assay (ATPlite); type: cell-based; details: read-out: Inhibition of Cell Proliferation IC50, BCR/BaF3 TrkA
T3 construct: fused on or other part: P11274 (Breakpoint cluster region protein)
Description: as §2, §3

T2 sequence (Q16620 538-807): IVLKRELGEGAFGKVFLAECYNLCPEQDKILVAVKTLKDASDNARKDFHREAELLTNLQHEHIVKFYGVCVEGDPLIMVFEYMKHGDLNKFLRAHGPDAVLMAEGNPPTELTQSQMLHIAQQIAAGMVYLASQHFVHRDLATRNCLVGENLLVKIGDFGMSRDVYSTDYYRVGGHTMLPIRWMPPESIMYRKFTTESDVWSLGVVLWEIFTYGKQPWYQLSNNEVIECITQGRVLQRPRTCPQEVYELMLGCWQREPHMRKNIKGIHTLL
T1 sequence (Q16288 whole entry, the tested form may be a part): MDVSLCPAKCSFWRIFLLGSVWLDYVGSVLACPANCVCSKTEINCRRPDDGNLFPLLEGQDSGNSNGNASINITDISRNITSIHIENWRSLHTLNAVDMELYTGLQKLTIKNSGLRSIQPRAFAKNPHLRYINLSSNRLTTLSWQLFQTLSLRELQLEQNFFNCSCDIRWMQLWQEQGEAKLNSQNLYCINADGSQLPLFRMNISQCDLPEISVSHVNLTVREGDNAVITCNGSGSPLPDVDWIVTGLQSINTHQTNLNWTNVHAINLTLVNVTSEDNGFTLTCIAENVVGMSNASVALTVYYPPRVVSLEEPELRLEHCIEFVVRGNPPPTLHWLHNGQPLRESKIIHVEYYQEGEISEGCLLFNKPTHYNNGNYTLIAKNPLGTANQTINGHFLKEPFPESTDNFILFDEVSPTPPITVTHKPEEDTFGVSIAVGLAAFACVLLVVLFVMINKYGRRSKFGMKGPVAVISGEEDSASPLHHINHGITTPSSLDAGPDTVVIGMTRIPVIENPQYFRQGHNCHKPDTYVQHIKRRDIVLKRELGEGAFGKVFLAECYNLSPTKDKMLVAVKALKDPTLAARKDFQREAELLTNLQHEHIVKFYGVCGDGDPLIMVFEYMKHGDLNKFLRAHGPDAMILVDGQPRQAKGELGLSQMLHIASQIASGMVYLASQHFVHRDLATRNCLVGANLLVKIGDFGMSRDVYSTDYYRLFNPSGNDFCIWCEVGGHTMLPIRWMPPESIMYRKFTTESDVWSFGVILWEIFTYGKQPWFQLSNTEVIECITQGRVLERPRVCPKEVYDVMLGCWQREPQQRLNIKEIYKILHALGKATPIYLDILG
Chain of CYP2C9 (P11712 whole entry): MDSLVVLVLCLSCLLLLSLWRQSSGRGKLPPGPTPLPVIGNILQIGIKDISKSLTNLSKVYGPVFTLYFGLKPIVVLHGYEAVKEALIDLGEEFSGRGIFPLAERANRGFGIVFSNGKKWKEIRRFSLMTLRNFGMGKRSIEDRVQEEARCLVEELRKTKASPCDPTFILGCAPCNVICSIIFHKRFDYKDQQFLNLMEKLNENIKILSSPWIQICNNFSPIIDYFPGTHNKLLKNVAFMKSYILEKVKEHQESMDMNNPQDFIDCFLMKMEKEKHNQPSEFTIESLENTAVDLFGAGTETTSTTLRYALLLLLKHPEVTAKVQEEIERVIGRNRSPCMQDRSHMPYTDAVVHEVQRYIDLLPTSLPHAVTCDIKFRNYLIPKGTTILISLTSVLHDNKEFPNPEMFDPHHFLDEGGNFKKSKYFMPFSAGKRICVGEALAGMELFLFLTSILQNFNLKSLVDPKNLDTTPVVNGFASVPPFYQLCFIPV
T3 sequence (P04629 510-781): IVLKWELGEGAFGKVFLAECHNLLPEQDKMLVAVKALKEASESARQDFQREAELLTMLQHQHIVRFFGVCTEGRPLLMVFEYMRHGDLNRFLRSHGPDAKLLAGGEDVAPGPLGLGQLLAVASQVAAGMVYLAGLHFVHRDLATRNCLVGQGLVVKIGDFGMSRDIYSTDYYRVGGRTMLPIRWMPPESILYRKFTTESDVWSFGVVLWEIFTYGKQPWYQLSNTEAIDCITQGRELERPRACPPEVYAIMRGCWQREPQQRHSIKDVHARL
Chain of CYP2C19 (P33261 whole entry): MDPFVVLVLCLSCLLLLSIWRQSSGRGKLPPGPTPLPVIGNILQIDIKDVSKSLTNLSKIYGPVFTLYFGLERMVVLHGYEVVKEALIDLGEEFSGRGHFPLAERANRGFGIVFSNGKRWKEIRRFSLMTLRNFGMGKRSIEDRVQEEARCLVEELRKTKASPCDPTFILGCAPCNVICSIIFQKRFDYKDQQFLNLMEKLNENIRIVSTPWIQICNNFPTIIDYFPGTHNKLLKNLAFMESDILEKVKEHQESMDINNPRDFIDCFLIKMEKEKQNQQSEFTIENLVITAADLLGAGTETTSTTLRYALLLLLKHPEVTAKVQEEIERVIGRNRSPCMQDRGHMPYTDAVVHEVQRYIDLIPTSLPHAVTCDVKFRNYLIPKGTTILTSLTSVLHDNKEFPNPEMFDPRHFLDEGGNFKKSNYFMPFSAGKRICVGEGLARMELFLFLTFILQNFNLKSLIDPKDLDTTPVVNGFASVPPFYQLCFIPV
Chain of CYP3A4(BFC) (P08684 whole entry): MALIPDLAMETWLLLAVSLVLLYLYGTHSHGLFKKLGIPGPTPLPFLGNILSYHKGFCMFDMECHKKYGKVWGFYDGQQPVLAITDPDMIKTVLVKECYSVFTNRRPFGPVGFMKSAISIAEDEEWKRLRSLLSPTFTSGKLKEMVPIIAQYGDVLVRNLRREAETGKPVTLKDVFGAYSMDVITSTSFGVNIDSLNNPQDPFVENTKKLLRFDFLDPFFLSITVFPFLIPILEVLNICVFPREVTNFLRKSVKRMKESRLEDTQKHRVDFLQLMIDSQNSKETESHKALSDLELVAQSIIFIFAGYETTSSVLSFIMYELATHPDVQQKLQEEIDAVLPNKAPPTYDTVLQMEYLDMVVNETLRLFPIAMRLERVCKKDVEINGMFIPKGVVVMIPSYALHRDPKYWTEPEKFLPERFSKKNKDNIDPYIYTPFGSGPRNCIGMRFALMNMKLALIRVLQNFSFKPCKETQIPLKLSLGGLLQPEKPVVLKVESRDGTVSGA

CCc1ccc(Nc2ccc(C(=O)c3c[nH]c4ncnc(NCC(C)(C)O)c34)c(F)n2)cn1 [Compound P-4064, [6-[(6-ethyl-3-pyridyl)amino]-2-fluoro-3-pyridyl]-[4-[(2-hydroxy-2-methyl-propyl)amino]-7H-pyrrolo[2,3-d]pyrimidin-5-yl]methanone]
IC50 (CYP2C19): > 10 µM | IC50 (CYP3A4(BFC)): > 10 µM | IC50 (CYP2C9): > 10 µM | IC50 (BCR-NTRK3 BaF3 cells): < 0.01 µM | IC50 (BCR-NTRK2 BaF3 cells): < 0.01 µM | IC50 (BCR-NTRK1 BaF3 cells): < 0.1 µM

CCc1ccc(Nc2ccc(C(=O)c3c[nH]c4ncnc(N)c34)c(F)n2)cn1 [Compound P-4065, (4-amino-7H-pyrrolo[2,3-d]pyrimidin-5-yl)-[6-[(6-ethyl-3-pyridyl)amino]-2-fluoro-3-pyridyl]methanone]
IC50 (CYP2C19): > 10 µM | IC50 (CYP3A4(BFC)): > 10 µM | IC50 (CYP2C9): > 10 µM | IC50 (BCR-NTRK3 BaF3 cells): < 0.01 µM | IC50 (BCR-NTRK2 BaF3 cells): < 0.01 µM | IC50 (BCR-NTRK1 BaF3 cells): < 0.1 µM

COc1ccc(Nc2ccc(C(=O)c3c[nH]c4ncnc(NC(C)C)c34)c(F)n2)cn1 [Compound P-4066, [2-fluoro-6-[(6-methoxy-3-pyridyl)amino]-3-pyridyl]-[4-(isopropylamino)-7H-pyrrolo[2,3-d]pyrimidin-5-yl]methanone]
IC50 (CYP2C19): > 10 µM | IC50 (CYP3A4(BFC)): > 10 µM | IC50 (CYP2C9): > 10 µM | IC50 (BCR-NTRK3 BaF3 cells): < 0.01 µM | IC50 (BCR-NTRK2 BaF3 cells): < 0.01 µM | IC50 (BCR-NTRK1 BaF3 cells): < 0.01 µM

COc1ccc(Nc2ccc(C(=O)c3c[nH]c4ncnc(NCC5CC5)c34)c(F)n2)cn1 [Compound P-4067, [4-(cyclopropylmethylamino)-7H-pyrrolo[2,3-d]pyrimidin-5-yl]-[2-fluoro-6-[(6-methoxy-3-pyridyl)amino]-3-pyridyl]methanone]
IC50 (CYP2C19): 5 to 10 µM | IC50 (CYP3A4(BFC)): > 10 µM | IC50 (CYP2C9): > 10 µM | IC50 (BCR-NTRK3 BaF3 cells): < 0.01 µM | IC50 (BCR-NTRK2 BaF3 cells): < 0.01 µM | IC50 (BCR-NTRK1 BaF3 cells): < 0.01 µM

CCCNc1ncnc2[nH]cc(C(=O)c3ccc(Nc4ccc(OC)nc4)nc3F)c12 [Compound P-4068, [2-fluoro-6-[(6-methoxy-3-pyridyl)amino]-3-pyridyl]-[4-(propylamino)-7H-pyrrolo[2,3-d]pyrimidin-5-yl]methanone]
IC50 (CYP2C19): > 10 µM | IC50 (CYP3A4(BFC)): > 10 µM | IC50 (CYP2C9): > 10 µM | IC50 (BCR-NTRK3 BaF3 cells): < 0.01 µM | IC50 (BCR-NTRK2 BaF3 cells): < 0.01 µM | IC50 (BCR-NTRK1 BaF3 cells): < 0.01 µM

COc1ccc(Nc2ccc(C(=O)c3c[nH]c4ncnc(N5CCCCC5)c34)c(F)n2)cn1 [Compound P-4069, [2-fluoro-6-[(6-methoxy-3-pyridyl)amino]-3-pyridyl]-[4-(1-piperidyl)-7H-pyrrolo[2,3-d]pyrimidin-5-yl]methanone]
IC50 (CYP2C19): 5 to 10 µM | IC50 (CYP3A4(BFC)): 5 to 10 µM | IC50 (CYP2C9): > 10 µM | IC50 (BCR-NTRK3 BaF3 cells): > 1 µM | IC50 (BCR-NTRK2 BaF3 cells): > 1 µM | IC50 (BCR-NTRK1 BaF3 cells): > 1 µM

COc1ccc(Nc2ccc(C(=O)c3c[nH]c4ncnc(N5CCOCC5)c34)c(F)n2)cn1 [Compound P-4070, [2-fluoro-6-[(6-methoxy-3-pyridyl)amino]-3-pyridyl]-(4-morpholino-7H-pyrrolo[2,3-d]pyrimidin-5-yl)methanone]
IC50 (CYP2C19): > 10 µM | IC50 (CYP3A4(BFC)): > 10 µM | IC50 (CYP2C9): > 10 µM | IC50 (BCR-NTRK3 BaF3 cells): > 1 µM | IC50 (BCR-NTRK2 BaF3 cells): > 1 µM | IC50 (BCR-NTRK1 BaF3 cells): > 1 µM

COc1ccc(Nc2ccc(C(=O)c3c[nH]c4ncnc(NCc5ccc(C(F)(F)F)nc5)c34)c(F)n2)cn1 [Compound P-4071, [2-fluoro-6-[(6-methoxy-3-pyridyl)amino]-3-pyridyl]-[4-[[6-(trifluoromethyl)-3-pyridyl]methylamino]-7H-pyrrolo[2,3-d]pyrimidin-5-yl]methanone]
IC50 (CYP2C19): > 10 µM | IC50 (CYP3A4(BFC)): > 10 µM | IC50 (CYP2C9): > 10 µM | IC50 (BCR-NTRK3 BaF3 cells): < 0.01 µM | IC50 (BCR-NTRK2 BaF3 cells): < 0.1 µM | IC50 (BCR-NTRK1 BaF3 cells): < 0.1 µM

COc1ccc(Nc2ccc(C(=O)c3c[nH]c4ncnc(N[C@@H](C)c5ccc(F)cc5)c34)c(F)n2)cn1 [Compound P-4072, [2-fluoro-6-[(6-methoxy-3-pyridyl)amino]-3-pyridyl]-[4-[[(1S)-1-(4-fluorophenyl)ethyl]amino]-7H-pyrrolo[2,3-d]pyrimidin-5-yl]methanone]
IC50 (CYP2C19): < 10 µM | IC50 (CYP3A4(BFC)): > 10 µM | IC50 (CYP2C9): 5 to 10 µM | IC50 (BCR-NTRK3 BaF3 cells): < 0.01 µM | IC50 (BCR-NTRK2 BaF3 cells): < 0.01 µM | IC50 (BCR-NTRK1 BaF3 cells): < 0.01 µM

COc1ccc(Nc2ccc(C(=O)c3c[nH]c4ncnc(NCC5CCCO5)c34)c(F)n2)cn1 (stereo not drawn) [Compound P-4073, [2-fluoro-6-[(6-methoxy-3-pyridyl)amino]-3-pyridyl]-[4-(tetrahydrofuran-2-ylmethylamino)-7H-pyrrolo[2,3-d]pyrimidin-5-yl]methanone]
IC50 (CYP2C19): 5 to 10 µM | IC50 (CYP3A4(BFC)): > 10 µM | IC50 (CYP2C9): > 10 µM | IC50 (BCR-NTRK3 BaF3 cells): < 0.01 µM | IC50 (BCR-NTRK2 BaF3 cells): < 0.01 µM | IC50 (BCR-NTRK1 BaF3 cells): < 0.1 µM

CCN1CCC(Nc2ncnc3[nH]cc(C(=O)c4ccc(Nc5ccc(OC)nc5)nc4F)c23)CC1 [Compound P-4074, [4-[(1-ethyl-4-piperidyl)amino]-7H-pyrrolo[2,3-d]pyrimidin-5-yl]-[2-fluoro-6-[(6-methoxy-3-pyridyl)amino]-3-pyridyl]methanone]
IC50 (CYP2C19): 5 to 10 µM | IC50 (CYP3A4(BFC)): > 10 µM | IC50 (CYP2C9): > 10 µM | IC50 (BCR-NTRK3 BaF3 cells): < 0.01 µM | IC50 (BCR-NTRK2 BaF3 cells): < 0.1 µM | IC50 (BCR-NTRK1 BaF3 cells): < 0.1 µM

COc1ccc(Nc2ccc(C(=O)c3c[nH]c4ncnc(NC5CCCC5)c34)c(F)n2)cn1 [Compound P-4075, [4-(cyclopentylamino)-7H-pyrrolo[2,3-d]pyrimidin-5-yl]-[2-fluoro-6-[(6-methoxy-3-pyridyl)amino]-3-pyridyl]methanone]
IC50 (CYP2C19): 5 to 10 µM | IC50 (CYP3A4(BFC)): > 10 µM | IC50 (CYP2C9): > 10 µM | IC50 (BCR-NTRK3 BaF3 cells): < 0.01 µM | IC50 (BCR-NTRK2 BaF3 cells): < 0.01 µM | IC50 (BCR-NTRK1 BaF3 cells): < 0.01 µM

COc1ccc(Nc2ccc(C(=O)c3c[nH]c4ncnc(NC5CCC5)c34)c(F)n2)cn1 [Compound P-4076, [4-(cyclobutylamino)-7H-pyrrolo[2,3-d]pyrimidin-5-yl]-[2-fluoro-6-[(6-methoxy-3-pyridyl)amino]-3-pyridyl]methanone]
IC50 (CYP2C19): 5 to 10 µM | IC50 (CYP3A4(BFC)): > 10 µM | IC50 (CYP2C9): > 10 µM | IC50 (BCR-NTRK3 BaF3 cells): < 0.01 µM | IC50 (BCR-NTRK2 BaF3 cells): < 0.01 µM | IC50 (BCR-NTRK1 BaF3 cells): < 0.01 µM
